Measurements published in patent US9028845B2, “Chimeric immunomodulatory compounds and methods of using the same-IV” (Dynavax Technologies Corporation, priority 2001, dated 2015).

Experiments:
[1] = system: human PBMCs; test: Human PBMC cytokine response assay (IFN-γ and IFN-α in cell-free medium by ELISA), with or without cPLGA; assay type: cell-based;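 as to IFN-α (pg/ml) mean: 20 µg/mL compound for 24 hours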;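 as to IFN-γ (pg/ml) mean: 20 µg/mL compound for 24 hours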
[2] = system: mice; test: Serum cytokines (IL-12 p40, IL-6, TNF-α) after subcutaneous injection in mice; assay type: in vivo; conditions: 20 ug subcutaneous, blood 2 hours later
Procedure: Blood was collected 2 hours later. For the LPS positive control group, mice were injected intraperitoneally with a 200 ul volume, and blood was collected 1.5 hours later (i.e., at the peak of LPS induced TNF-α activity). The blood was clotted and the serum was prepared and stored at −80° C. until assayed. Serum cytokines were assayed using Biosource cytoscreen kits for TNF-α and Pharmingen antibody pairs for mIL-6 and mIL-12. All samples were assayed in duplicate.

[3] = Table 24, mean of donors 28234-28237
[4] = Table 25, mean of donors 28250-28253
[5] = donor 28066, 20 ug/ml, 24 h, + PLGA = premixed with 100 μg/ml cPLGA
[6] = donor 28067, 20 ug/ml, 24 h, + PLGA = premixed with 100 μg/ml cPLGA
[7] = donor 28068, 20 ug/ml, 24 h, + PLGA = premixed with 100 μg/ml cPLGA
[8] = mean of Donors 1-2, 20 μg/ml, 24 h
[9] = mean of Donors 3-4, 20 μg/ml, 24 h
[10] = mean of Donors 5-6, 20 μg/ml (mixtures: 20 μg/ml total), 24 h
[11] = mean of Donors 7-8, 20 μg/ml, 24 h
[12] = mean of Donors 9-12, 20 μg/ml, 24 h
[13] = mean of donors 110, 112, 119, 120, Table 14
[14] = mean of donors 28057-28060, Table 16
[15] = mean of donors 28065-28068, 20 ug/ml, 24 h, + PLGA = premixed with 100 μg/ml cPLGA
[16] = mean of donors 28185-28188, Table 15
[17] = mean of donors 28218-28221, 20 μg/ml, 24 h

With “5′-TGACTGTGAACGTTCGAGATGA-3′ (SEQ ID NO: 2) [Compound P-6, reference compound]” the IFN-α ([1]; Table 13, donor 28158) was 7 pg/mL, the IFN-γ ([1]; Table 13, donor 28158) was 207 pg/mL and the IFN-α ([1]; Table 13, donor 28159) was 32 pg/mL. It also gave an IFN-γ ([1]; Table 13, donor 28159) of 231 pg/mL, an IFN-α mean ([1]; Table 13, mean of donors) of 144 pg/mL and an IFN-γ mean ([1]; Table 13, mean of donors) of 611 pg/mL. It also gave an IFN-α ([1]; Table 24, donor 28234) of 58 pg/mL, an IFN-γ ([1]; Table 24, donor 28234) of 15 pg/mL and an IFN-α ([1]; Table 24, donor 28235) of 16 pg/mL. It also gave an IFN-γ ([1]; Table 24, donor 28235) of 52 pg/mL, an IFN-α ([1]; Table 24, donor 28236) of 16 pg/mL and an IFN-γ ([1]; Table 24, donor 28236) of 51 pg/mL. It also gave an IFN-α ([1]; Table 24, donor 28237) of 74 pg/mL, an IFN-γ ([1]; Table 24, donor 28237) of 1167 pg/mL and an IFN-α mean [1, 3] of 41 pg/mL. For the same substance, the IFN-γ mean [1, 3] was 321 pg/mL, the IFN-a ([1]; Table 25, donor 28250) was 16 pg/mL and the IFN-a ([1]; Table 25, donor 28251) was 16 pg/mL. The IFN-g ([1]; Table 25, donor 28251) was 18 pg/mL, the IFN-a ([1]; Table 25, donor 28252) was 16 pg/mL and the IFN-g ([1]; Table 25, donor 28252) was 34 pg/mL. The IFN-a ([1]; Table 25, donor 28253) was 16 pg/mL, the IFN-g ([1]; Table 25, donor 28253) was 37 pg/mL and the IFN-a mean [1, 4] was 16 pg/mL. For the same substance, the IFN-g mean [1, 4] was 52 pg/mL, the “IFN-α” value ([1]; donor 110, Table 14) was 50 pg/mL and the “IFN-γ” value ([1]; donor 110, Table 14) was 1508 pg/mL. For the same substance, the “IFN-α” value ([1]; donor 112, Table 14) was 172 pg/mL, the “IFN-γ” value ([1]; donor 112, Table 14) was 344 pg/mL and the “IFN-α” value ([1]; donor 119, Table 14) was 234 pg/mL. The “IFN-γ” value ([1]; donor 119, Table 14) was 144 pg/mL, the “IFN-α” value ([1]; donor 120, Table 14) was 72 pg/mL and the “IFN-γ” value ([1]; donor 120, Table 14) was 104 pg/mL. The “IFN-α” value ([1]; donor 28057, Table 16) was 621 pg/mL, the “IFN-γ” value ([1]; donor 28057, Table 16) was 83 pg/mL and the “IFN-α” value ([1]; donor 28058, Table 16) was 396 pg/mL. For the same substance, the “IFN-γ” value ([1]; donor 28058, Table 16) was 103 pg/mL, the “IFN-α” value ([1]; donor 28059, Table 16) was 145 pg/mL and the “IFN-γ” value ([1]; donor 28059, Table 16) was 1230 pg/mL. The “IFN-α” value ([1]; donor 28060, Table 16) was 123 pg/mL, the “IFN-γ” value ([1]; donor 28060, Table 16) was 85 pg/mL and the “IFN-γ (pg/ml) 28065” value ([1]; donor 28065 (high background), 20 ug/ml, 24 h, + PLGA = premixed with 100 μg/ml cPLGA, 1000 = outside assay limits) was 439 pg/mL. The “IFN-α (pg/ml) 28065” value ([1]; donor 28065, 20 ug/ml, 24 h, + PLGA = premixed with 100 μg/ml cPLGA) was 14 pg/mL, the “IFN-α (pg/ml) 28066” value [1, 5] was 17 pg/mL and the “IFN-γ (pg/ml) 28066” value [1, 5] was 12 pg/mL. For the same substance, the “IFN-α (pg/ml) 28067” value [1, 6] was 45 pg/mL, the “IFN-γ (pg/ml) 28067” value [1, 6] was 28 pg/mL and the “IFN-α (pg/ml) 28068” value [1, 7] was 126 pg/mL. For the same substance, the “IFN-γ (pg/ml) 28068” value [1, 7] was 906 pg/mL, the “IFN-a” value ([1]; donor 28185, Table 15) was 120 pg/mL and the “IFN-g” value ([1]; donor 28185, Table 15) was 205 pg/mL. The “IFN-a” value ([1]; donor 28186, Table 15) was 41 pg/mL, the “IFN-g” value ([1]; donor 28186, Table 15) was 17 pg/mL and the “IFN-a” value ([1]; donor 28187, Table 15) was 4 pg/mL. For the same substance, the “IFN-g” value ([1]; donor 28187, Table 15) was 148 pg/mL, the “IFN-a” value ([1]; donor 28188, Table 15) was 4 pg/mL and the “IFN-g” value ([1]; donor 28188, Table 15) was 8 pg/mL. The “IFN-a (pg/ml) 28218” value ([1]; donor 28218, 20 μg/ml, 24 h) was 32 pg/mL, the “IFN-g (pg/ml) 28218” value ([1]; donor 28218, 20 μg/ml, 24 h) was 13 pg/mL and the “IFN-a (pg/ml) 28219” value ([1]; donor 28219, 20 μg/ml, 24 h) was 32 pg/mL. For the same substance, the “IFN-g (pg/ml) 28219” value ([1]; donor 28219, 20 μg/ml, 24 h) was 7 pg/mL, the “IFN-a (pg/ml) 28220” value ([1]; donor 28220, 20 μg/ml, 24 h) was 32 pg/mL and the “IFN-g (pg/ml) 28220” value ([1]; donor 28220, 20 μg/ml, 24 h) was 25 pg/mL. For the same substance, the “IFN-a (pg/ml) 28221” value ([1]; donor 28221, 20 μg/ml, 24 h) was 32 pg/mL, the “IFN-g (pg/ml) 28221” value ([1]; donor 28221, 20 μg/ml, 24 h) was 141 pg/mL and the “IFN-α (pg/ml) mean” value [1, 8] was 220 pg/mL. For the same substance, the “IFN-γ (pg/ml) mean” value [1, 8] was 1425 pg/mL, the “IFN-α (pg/ml) mean” value [1, 9] was 67 pg/mL and the “IFN-γ (pg/ml) mean” value [1, 9] was 161 pg/mL. The “IFN-α (pg/ml) mean” value [1, 10] was 268 pg/mL, the “IFN-γ (pg/ml) mean” value [1, 10] was 621 pg/mL and the “IFN-α (pg/ml) mean” value [1, 11] was 32 pg/mL. The “IFN-γ (pg/ml) mean” value [1, 11] was 191 pg/mL, the IFN-α mean [1, 12] was 16 and the IFN-γ mean [1, 12] was 45. The “IFN-α (pg/ml) mean” value [1, 13] was 132 pg/mL, the “IFN-γ (pg/ml) mean” value [1, 13] was 525 pg/mL and the “IFN-α (pg/ml) mean” value [1, 14] was 321 pg/mL. The “IFN-γ (pg/ml) mean” value [1, 14] was 375 pg/mL, the “IFN-α (pg/ml) mean” value [1, 15] was 50 pg/mL and the “IFN-γ (pg/ml) mean” value [1, 15] was 346 pg/mL. For the same substance, the “IFN-a (pg/ml) mean” value [1, 16] was 42 pg/mL, the “IFN-g (pg/ml) mean” value [1, 16] was 94 pg/mL and the “IFN-a (pg/ml) mean” value [1, 17] was 32 pg/mL. The “IFN-g (pg/ml) mean” value [1, 17] was 47 pg/mL, the “IFN-a (pg/ml) ×2” value ([1]; mean ×2, Table 15) was 84 pg/mL and the “IFN-g (pg/ml) ×4” value ([1]; mean ×4, Table 15) was 378 pg/mL. The “induction of serum IL-12 p40, IL-6 and TNF-α, in words” value [2] was “induced IL-12 p40, IL-6, and TNF-α”.
